Test results published in ChEMBL document CHEMBL1136684, “Novel and potent human and rat beta3-adrenergic receptor agonists containing substituted 3-indolylalkylamines” (Bioorg Med Chem Lett, 2003).

Legend:
[1] = target: T1, Beta-3 adrenergic receptor (Homo sapiens, UniProt P13945); test: Agonistic activity against human Beta-3 adrenergic receptor by measuring cAMP accumulation in CHO cells expressing Beta-3 adrenergic receptor with respect to isoproterenol at a concentration of 10e-7 M; type: functional, cell-based
Target sequence in this assay (P13945 whole entry, looked up): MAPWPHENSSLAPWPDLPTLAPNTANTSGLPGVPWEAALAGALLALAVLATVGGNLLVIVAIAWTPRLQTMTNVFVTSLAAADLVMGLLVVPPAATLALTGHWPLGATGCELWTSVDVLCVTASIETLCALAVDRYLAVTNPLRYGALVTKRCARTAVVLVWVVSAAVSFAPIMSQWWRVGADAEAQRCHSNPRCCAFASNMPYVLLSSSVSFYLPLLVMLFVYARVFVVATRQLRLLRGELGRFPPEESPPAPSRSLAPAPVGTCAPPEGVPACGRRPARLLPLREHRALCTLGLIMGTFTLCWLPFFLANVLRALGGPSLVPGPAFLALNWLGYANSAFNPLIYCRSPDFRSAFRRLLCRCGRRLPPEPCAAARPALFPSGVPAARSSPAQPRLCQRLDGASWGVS

[2] = target: T2, Beta-2 adrenergic receptor (Homo sapiens, UniProt P07550); test: (§1) Agonistic activity against human Beta-2 adrenergic receptor by measuring cAMP accumulation in CHO cells expressing beta3-AR; type: functional, cell-based
Target sequence in this assay (P07550 whole entry, looked up): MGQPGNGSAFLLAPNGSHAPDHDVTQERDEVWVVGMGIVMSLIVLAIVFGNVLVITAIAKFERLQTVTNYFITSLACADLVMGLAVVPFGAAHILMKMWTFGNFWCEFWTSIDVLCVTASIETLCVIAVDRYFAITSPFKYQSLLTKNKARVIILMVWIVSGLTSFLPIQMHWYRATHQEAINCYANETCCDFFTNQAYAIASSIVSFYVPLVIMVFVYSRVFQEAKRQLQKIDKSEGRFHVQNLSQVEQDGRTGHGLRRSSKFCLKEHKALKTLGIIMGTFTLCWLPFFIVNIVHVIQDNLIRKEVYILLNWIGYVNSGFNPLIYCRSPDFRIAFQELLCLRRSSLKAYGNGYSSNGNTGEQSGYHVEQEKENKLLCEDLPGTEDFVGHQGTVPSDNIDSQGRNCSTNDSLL

[3] = target: T1, Beta-3 adrenergic receptor; test: Agonistic activity to recombinant human beta-3 adrenergic receptor expressed in CHO cells by measuring cAMP accumulation; type: functional, cell-based
Target sequence in this assay (P13945 whole entry, looked up): as the sequence (P13945 whole entry, looked up) above

[4] = target: T1, Beta-3 adrenergic receptor; test: Agonism of recombinant human beta-3 adrenergic receptor assayed by measuring cAMP accumulation in CHO cells expressing beta3-AR; type: functional, cell-based
Target sequence in this assay (P13945 whole entry): as the sequence (P13945 whole entry, looked up) above

[5] = target: T2, Beta-2 adrenergic receptor; test: as §1; type: functional, cell-based; remark: listed apart in the source
Target sequence in this assay (P07550 whole entry): as the sequence (P07550 whole entry, looked up) above

[6] = target: Beta-3 adrenergic receptor (Rattus norvegicus) (UniProt P26255); test: Agonistic activity against rat Beta-3 adrenergic receptor as cAMP accumulation in CHO cells expressing beta3-AR
[7] = target: Beta-3 adrenergic receptor (Rattus norvegicus) (UniProt P26255); test: as above; remark: listed apart in the source
[8] = target: T1, Beta-3 adrenergic receptor; test: Agonistic activity against human Beta-3 adrenergic receptor by measuring cAMP accumulation in CHO cells expressing beta3-AR with respect to isoproterenol at a concentration of 10e-7 M; type: functional, cell-based
Target sequence in this assay (P13945 whole entry, looked up): as the sequence (P13945 whole entry, looked up) above

[9] = target: T1, Beta-3 adrenergic receptor; test: Agonistic activity against human beta-3-adrenergic receptor by measuring cAMP accumulation in CHO cells expressing Beta-3 adrenergic receptor; type: functional, cell-based
Target sequence in this assay (P13945 whole entry, looked up): as above

[10] = target: T1, Beta-3 adrenergic receptor; test: (§2) Agonistic activity against human Beta-3 adrenergic receptor by measuring cAMP accumulation in CHO cells expressing Beta-3 adrenergic receptor; type: functional, cell-based
Target sequence in this assay (P13945 whole entry): as the sequence (P13945 whole entry, looked up) above

[11] = target: T1, Beta-3 adrenergic receptor; test: as §2; type: functional, cell-based; remark: listed apart in the source
Target sequence in this assay (P13945 whole entry, looked up): as above

[12] = target: Beta-1 adrenergic receptor (Homo sapiens, UniProt P08588); test: Agonistic activity against human Beta-1 adrenergic receptor by measuring cAMP accumulation in CHO cells expressing beta3-AR; type: functional, cell-based
[13] = target: T1, Beta-3 adrenergic receptor; test: Agonistic activity against human Beta-3 adrenergic receptor by measuring cAMP accumulation in CHO cells; type: functional, cell-based
Target sequence in this assay (P13945 whole entry, looked up): as above

Sequence of Beta-1 adrenergic receptor (P08588 whole entry): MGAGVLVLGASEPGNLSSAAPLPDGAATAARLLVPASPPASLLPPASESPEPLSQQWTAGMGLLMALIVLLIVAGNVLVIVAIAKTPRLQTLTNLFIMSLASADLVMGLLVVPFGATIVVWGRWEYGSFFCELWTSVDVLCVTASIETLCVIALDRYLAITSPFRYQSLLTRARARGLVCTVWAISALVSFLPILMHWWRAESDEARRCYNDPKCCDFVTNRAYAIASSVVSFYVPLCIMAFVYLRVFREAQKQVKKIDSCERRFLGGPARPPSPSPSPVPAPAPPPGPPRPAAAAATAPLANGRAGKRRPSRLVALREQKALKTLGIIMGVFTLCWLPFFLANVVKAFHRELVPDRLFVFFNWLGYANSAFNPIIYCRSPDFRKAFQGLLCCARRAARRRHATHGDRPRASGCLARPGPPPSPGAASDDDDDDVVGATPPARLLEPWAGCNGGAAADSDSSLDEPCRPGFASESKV

`CCC(Cc1c[nH]c2ccccc12)NCC(O)c1cccc(Cl)c1` (centres undefined) showed a cAMP accumulation [1] of 20%.

`COc1cccc2c(C[C@@H](C)NC[C@H](O)c3cccc(Cl)c3)c[nH]c12` gave an Intrinsic activity [2] of 46%, an Intrinsic activity [3] of 89% and an EC50 [4] of 0.36 nM. It also gave an EC50 [5] of 5.2 nM, an EC50 [6] of 0.15 nM and an Intrinsic activity [7] of 147%.

In the case of `Cn1cc(CCNCC(O)c2cccc(Cl)c2)c2ccccc21` (centres undefined), the cAMP accumulation [8] is reported as 6%.

`OC(CNC1CCc2[nH]c3ccccc3c2C1)c1cccc(Cl)c1` (centres undefined) showed a cAMP accumulation [8] of 0%.

Compound `Cc1[nH]c2ccccc2c1CCNCC(O)c1cccc(Cl)c1` (centres undefined) has a cAMP accumulation [8] of 5%.

Compound `COc1cccc2c(C[C@H](C)NC[C@H](O)c3cccc(Cl)c3)c[nH]c12` has an Intrinsic activity [3] of 51%, an EC50 [4] of 120 nM and an EC50 [6] of 6.5 nM. It also gave an Intrinsic activity [7] of 121%.

`COC(=O)COc1cccc2c(CC(C)NC[C@H](O)c3cccc(Cl)c3)c[nH]c12` (some centres undefined) gave an Intrinsic activity [3] of 102% and an EC50 [4] of 0.92 nM.

In the case of `Cc1ccc2c(CC(C)NCC(O)c3cccc(Cl)c3)c[nH]c2c1` (centres undefined), the Intrinsic activity [3] is reported as 95%.

With `CC(Cc1c[nH]c2c(OCC(=O)O)cccc12)NC[C@H](O)c1cccc(Cl)c1` (some centres undefined) the Intrinsic activity [3] was 124% and the EC50 [4] was 0.11 nM.

With `COc1cccc2c(CC(C)NC[C@H](O)c3cccc(Cl)c3)c[nH]c12` (some centres undefined) the Intrinsic activity [3] was 114%.

`CC(C)(Cc1c[nH]c2ccccc12)NCC(O)c1cccc(Cl)c1` (centres undefined) showed an Intrinsic activity [9] of 118% and an EC50 [10] of 70 nM.

`CC(Cc1c[nH]c2ccccc12)NCC(O)c1cccc(Cl)c1` (mixture of isomers) [listing 1 of 2 here] was tested, and the Intrinsic activity [2] was 46%, the Intrinsic activity [3] was 114% and the Intrinsic activity [7] was 107%.

`Cc1cccc2[nH]cc(CCNCC(O)c3cccc(Cl)c3)c12` (centres undefined) gave a cAMP accumulation [8] of 20%.

For `CCOc1cccc2c(CC(C)NC[C@H](O)c3cccc(Cl)c3)c[nH]c12` (some centres undefined), the Intrinsic activity [3] was 96%.

`CC(Cc1c[nH]c2ccccc12)NCC(O)c1cccc(Cl)c1` (centres undefined) [listing 1 of 2 here] was tested, and the Intrinsic activity [11] was 114%.

`C[C@H](Cc1c[nH]c2ccccc12)NC[C@H](O)c1cccc(Cl)c1` gave an Intrinsic activity [2] of 50%, an Intrinsic activity [3] of 110% and an EC50 [12] of 1.9 nM. It also gave an EC50 [4] of 5.4 nM, an EC50 [5] of 25 nM and an EC50 [6] of 0.36 nM. For the same compound, the Intrinsic activity [7] was 98%.

`CC(Cc1c[nH]c2cc(Br)ccc12)NCC(O)c1cccc(Cl)c1` (centres undefined) gave an Intrinsic activity [3] of 98% and an EC50 [4] of 38 nM.

Compound `Cc1cccc2c(CCNCC(O)c3cccc(Cl)c3)c[nH]c12` (centres undefined) has a cAMP accumulation [8] of 0%.

`C[C@H](Cc1c[nH]c2c(OCC(=O)O)cccc12)NC[C@H](O)c1cccc(Cl)c1` [RAFABEGRON] was tested, and the Intrinsic activity [2] was 26%, the Intrinsic activity [3] was 116% and the EC50 [12] was 6.4 nM. It also gave an EC50 [4] of 0.062 nM, an EC50 [5] of 13 nM and an EC50 [6] of 0.016 nM. For the same compound, the Intrinsic activity [7] was 110%.

With `COc1cccc2c(CC(C)NCC(O)c3cccc(Cl)c3)c[nH]c12` (centres undefined) the Intrinsic activity [3] was 113%.

With `C[C@H](Cc1c[nH]c2ccccc12)NC[C@@H](O)c1cccc(Cl)c1` the Intrinsic activity [2] was 23%, the Intrinsic activity [3] was 119% and the EC50 [12] was 47 nM. The EC50 [4] was 220 nM, the EC50 [5] was 330 nM and the EC50 [6] was 11 nM. The Intrinsic activity [7] was 108%.

Work on `C[C@@H](Cc1c[nH]c2ccccc12)NC[C@@H](O)c1cccc(Cl)c1` yielded an Intrinsic activity [3] of 62%, an EC50 [12] of 140 nM and an EC50 [4] of 3300 nM. The EC50 [6] was 33 nM and the Intrinsic activity [7] was 108%.

With `CCCOc1cccc2c(CC(C)NC[C@H](O)c3cccc(Cl)c3)c[nH]c12` (some centres undefined) the Intrinsic activity [3] was 103% and the EC50 [4] was 14 nM.

With `Cc1ccc2[nH]cc(CCNCC(O)c3cccc(Cl)c3)c2c1` (centres undefined) the cAMP accumulation [8] was 7%.

For `CC(Cc1c[nH]c2c(OCc3ccccc3)cccc12)NC[C@H](O)c1cccc(Cl)c1` (some centres undefined), the Intrinsic activity [3] was 114% and the EC50 [4] was 11 nM.

`CC(Cc1c[nH]c2c(OC(C)C)cccc12)NC[C@H](O)c1cccc(Cl)c1` (some centres undefined) showed an Intrinsic activity [3] of 87% and an EC50 [4] of 2.8 nM.

With `Cc1cccc2[nH]cc(CC(C)NCC(O)c3cccc(Cl)c3)c12` (centres undefined) the Intrinsic activity [3] was 165% and the EC50 [4] was 96 nM.

`CC(Cc1c[nH]c2cc(Cl)ccc12)NCC(O)c1cccc(Cl)c1` (centres undefined) gave an Intrinsic activity [3] of 131% and an EC50 [4] of 28 nM.

`C[C@@H](Cc1c[nH]c2c(OCC(=O)O)cccc12)NC[C@H](O)c1cccc(Cl)c1` was tested, and the Intrinsic activity [3] was 84%, the EC50 [12] was 14 nM and the EC50 [4] was 10 nM. For the same compound, the EC50 [6] was 1.2 nM and the Intrinsic activity [7] was 106%.

Compound `CC(Cc1c[nH]c2ccccc12)NCC(O)c1cccc(Cl)c1` (mixture of isomers) [listing 2 of 2 here] has an EC50 [4] of 12 nM, an EC50 [5] of 23 nM and an EC50 [6] of 0.97 nM.

In the case of `C[C@@H](Cc1c[nH]c2ccccc12)NC[C@H](O)c1cccc(Cl)c1`, the Intrinsic activity [3] is reported as 97%, the EC50 [12] is reported as 9.4 nM and the EC50 [4] is reported as 240 nM. The EC50 [6] was 13 nM and the Intrinsic activity [7] was 96%.

`C[C@H](Cc1ccc(OCC(=O)O)cc1)NC[C@H](O)c1cccc(Cl)c1` gave an Intrinsic activity [2] of 31%.

`CC(Cc1c[nH]c2ccccc12)NCC(O)c1cccc(Cl)c1` (centres undefined) [listing 2 of 2 here] gave an EC50 [10] of 12 nM.

For `CC(Cc1c[nH]c2c(O)cccc12)NC[C@H](O)c1cccc(Cl)c1` (some centres undefined), the Intrinsic activity [3] was 128% and the EC50 [4] was 1.7 nM.

With `COc1ccc2c(CC(C)NCC(O)c3cccc(Cl)c3)c[nH]c2c1` (centres undefined) the Intrinsic activity [3] was 102%.

For `OC(CNCCc1c[nH]c2ccccc12)c1cccc(Cl)c1` (centres undefined), the Intrinsic activity [13] was 99% and the EC50 [10] was 69 nM.
